Laboratory results from patent publication US12594335B2, “Platinum-based drug-/photosensitizer-loaded protein nanoparticle, and preparation method therefor and application thereof” (SOOCHOW UNIVERSITY, priority 2020, dated 2026).

What was measured:
[1] = Serum biochemical indexes of liver and kidney functions; assay type: in vivo, Balb/c mice; details: 5 mg/kg Pt i.v. every other day, 3 times; serum on day 7, 14, 21, 28
From the text: Inspection of biochemical indexes after action of nanoparticles: In order to determine the toxicity of drugs during metabolism in vivo, biochemical indexes of liver and kidney functions were investigated. […]

[2] = In-vitro chemical stability (UV absorbance of Ce6 within 72 h); assay type: physicochemical; details: water, phosphate buffer pH 5.5, pH 7.4, culture medium with 10% fetal bovine serum
Protocol: In-vitro stability of nanoparticles: (1) Chemical stability of nanoparticles: taking 0.1 mL of a nanoparticle solution with the concentration of Ce6 at 20 μmol/L and 0.1 mL of a free Ce6 solution with a concentration of 20 μmol/L, respectively, and adding them respectively to 2.9 mL of pure water, a phosphate buffer with pH 5.5, a phosphate buffer with pH 7.4, and a RPMI 1640 culture medium containing 10% fetal bovine serum; and storing at room temperature and away from light, with 3 copies for each environment. A UV-vis spectrophotometer was used to measure the absorbance change of Ce6 within 72 h.

[3] = Photostability under 660 nm laser irradiation; assay type: physicochemical
Protocol: (2) Photostability of nanoparticles: taking 0.1 mL of a nanoparticle solution with the concentration of Ce6 at 20 μmol/L and 0.1 mL of a free Ce6 solution with a concentration of 20 μmol/L, respectively, and adding them respectively to 2.9 mL of pure water, a phosphate buffer with pH 5.5, and a phosphate buffer with pH 7.4; and using a 660 nm laser with the power of 0.15 W/cm^2 to irradiate the solutions once every 30 s, and immediately measuring the ultraviolet absorption value with a UV-vis spectrophotometer until full 5 min of irradiation.

Compound | kidney indexes Urea and Crea [1] | liver indexes (ALT, AST, ALP) [1] | decrease of UV absorption with time [2] | photostability ([3]; 0.15 W/cm^2, up to 5 min, deionized water, pH 5.5 and pH 7.4 buffers) | time to completed photobleaching ([3]; acidic environment, 0.15 W/cm^2) [s]
N.N.[Cl][Pt][Cl] [free CDDP, cis-dichlorodiammine platinum (II)] | increased rapidly | changed greatly |  |  | 
chlorin e6 [free Ce6] |  |  | 20%-40% | photobleached quickly | ≤ 120
